In patent publication US10414811B2, “Protease-resistant lipidated GLP-1 analogs” (MEDIMMUNE LIMITED, priority 2015, dated 2019):
pEC50: −log10 of the molar value. Read-outs that look alike come from different tables or passages of the source. Numbered stars: 1 amine (or outer) side, 2 acyl side, 3 side chain; on linkers, the order of the positions; unused ones are H or OH. Square brackets hold non-standard residues; d marks the D form. Side chains are listed from the residue outwards. Peptide text beside a SMILES is read from it. * marks the point of attachment. γGlu = O=C(O)[C@H](CCC(=O)[*:2])N[*:1]; αMeF = C[C@](N)(Cc1ccccc1)C(=O)O; αMeK = C[C@](N)(CCCCN)C(=O)O; Lauroyl = CCCCCCCCCCCC(=O)*; αMeS = C[C@](N)(CO)C(=O)O; AEEA = NCCOCCOCC(=O)O; Aib = CC(C)(N)C(=O)O

How the values were obtained:
Format in all cases: cell-based
[1] = biological target: T1, human glucose-dependent insulinotropic peptide receptor (GIPR) (Homo sapiens, UniProt P48546); experiment: cAMP assay, human GIPR cells
T1 construct: expressed in transfected cells
T1 sequence (P48546 22-466): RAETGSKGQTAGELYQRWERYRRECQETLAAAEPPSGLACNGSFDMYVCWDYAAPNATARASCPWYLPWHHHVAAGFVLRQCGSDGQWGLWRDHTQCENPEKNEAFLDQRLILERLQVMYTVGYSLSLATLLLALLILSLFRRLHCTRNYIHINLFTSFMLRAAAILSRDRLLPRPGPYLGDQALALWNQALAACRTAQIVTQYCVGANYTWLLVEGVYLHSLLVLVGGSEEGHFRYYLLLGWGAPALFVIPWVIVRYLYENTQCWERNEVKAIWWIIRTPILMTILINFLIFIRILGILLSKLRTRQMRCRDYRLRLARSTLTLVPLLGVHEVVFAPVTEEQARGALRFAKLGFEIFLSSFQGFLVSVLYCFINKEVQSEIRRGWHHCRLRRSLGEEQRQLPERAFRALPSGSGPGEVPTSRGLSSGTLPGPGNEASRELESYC
In short: (§1)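 Peptide-stimulated cAMP measured by two-step HTRF after a 30 min room-temperature incubation with receptor-expressing cells (hGLP-1R, hGIPR at 1×10^5 cells/ml; hGCGR at 2×10^5 cells/ml). Duplicate dilutions; EC50 from 4-parameter logistic fit of % Delta F.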

GLP-1R (INS1e assay) = biological target: T2, GLP-1R (INS1e assay) (Rattus norvegicus, UniProt P32301); experiment: INS1e assay, cAMP activity at GLP-1R; conditions: for EC50: mean of n1 and n2, read-out: INS1e assay EC50 Mean pM GLP-1R
T2 construct: endogenous in cells; host or cells: INS-1E cells
T2 sequence (P32301 22-463): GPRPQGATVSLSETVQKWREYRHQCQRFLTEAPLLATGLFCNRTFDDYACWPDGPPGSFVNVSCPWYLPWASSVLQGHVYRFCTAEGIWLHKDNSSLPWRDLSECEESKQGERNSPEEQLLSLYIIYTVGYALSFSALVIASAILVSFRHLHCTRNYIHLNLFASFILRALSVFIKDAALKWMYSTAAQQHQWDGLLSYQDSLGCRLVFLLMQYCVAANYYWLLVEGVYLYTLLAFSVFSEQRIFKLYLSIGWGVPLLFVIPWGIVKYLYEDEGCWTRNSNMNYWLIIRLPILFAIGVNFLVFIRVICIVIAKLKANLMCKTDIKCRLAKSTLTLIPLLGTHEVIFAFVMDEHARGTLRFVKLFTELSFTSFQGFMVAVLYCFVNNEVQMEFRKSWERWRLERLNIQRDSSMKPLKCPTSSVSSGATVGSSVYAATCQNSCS
In short: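 cAMP was quantified by two-step HTRF, using anti-cAMP cryptate donor and cAMP-d2 acceptor, each diluted 1/20 in conjugate and lysis buffer. EC50 values of the synthetic peptides were derived from the cAMP readout.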

[2] = biological target: T3, human GLP-1 receptor (GLP-1R) (Homo sapiens, UniProt P43220); experiment: cAMP assay, human GLP-1R cells; conditions: for EC50: mean of n1 and n2
T3 construct: expressed in transfected cells
T3 sequence (P43220 24-463): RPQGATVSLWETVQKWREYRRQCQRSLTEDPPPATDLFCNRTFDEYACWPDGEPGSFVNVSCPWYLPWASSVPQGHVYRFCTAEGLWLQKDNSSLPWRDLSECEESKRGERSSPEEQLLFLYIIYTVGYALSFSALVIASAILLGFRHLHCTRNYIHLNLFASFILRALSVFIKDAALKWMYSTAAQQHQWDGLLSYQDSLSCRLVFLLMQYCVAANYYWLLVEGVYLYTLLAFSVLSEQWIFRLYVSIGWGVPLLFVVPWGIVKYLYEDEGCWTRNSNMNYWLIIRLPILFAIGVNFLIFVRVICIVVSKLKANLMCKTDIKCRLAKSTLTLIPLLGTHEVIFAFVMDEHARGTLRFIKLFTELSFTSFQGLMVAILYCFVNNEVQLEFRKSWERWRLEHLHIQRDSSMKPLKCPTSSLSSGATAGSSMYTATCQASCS
In short: as §1

[3] = biological target: T4, human glucagon receptor (GCGR) (Homo sapiens, UniProt P47871); experiment: cAMP assay, human GCGR cells
T4 construct: expressed in transfected cells
T4 sequence (P47871 26-477): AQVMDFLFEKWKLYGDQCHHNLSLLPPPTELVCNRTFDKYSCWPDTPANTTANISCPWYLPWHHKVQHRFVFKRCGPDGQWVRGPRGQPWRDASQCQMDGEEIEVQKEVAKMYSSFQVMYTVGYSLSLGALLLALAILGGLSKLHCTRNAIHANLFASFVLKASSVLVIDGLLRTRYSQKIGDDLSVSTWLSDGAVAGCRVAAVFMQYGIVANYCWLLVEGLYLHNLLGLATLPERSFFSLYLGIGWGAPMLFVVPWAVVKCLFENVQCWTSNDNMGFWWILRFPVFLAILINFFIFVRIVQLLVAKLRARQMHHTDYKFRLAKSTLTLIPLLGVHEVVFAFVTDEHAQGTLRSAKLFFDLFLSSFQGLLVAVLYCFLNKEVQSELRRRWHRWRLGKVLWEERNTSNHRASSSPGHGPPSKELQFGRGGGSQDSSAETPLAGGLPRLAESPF
In short: as §1

[4] = tris-lipidated peptides, replicate n1, read-out: INS1e assay EC50 GLP-1R n1
[5] = tris-lipidated peptides, replicate n2, read-out: INS1e assay EC50 GLP-1R n2
[6] = tris-lipidated peptides, read-out: Primary assay EC50 Mean pM GLP-1R
[7] = tris-lipidated peptides, replicate n1, read-out: Primary assay EC50 GLP-1R n1
[8] = tris-lipidated peptides, replicate n2, read-out: Primary assay EC50 GLP-1R n2
[9] = tris-lipidated peptides, first replicate, read-out: Primary assay EC50 Gluc-R (n1)

pEC50 ([1]; cAMP assay, first determination (n1), read-out: Primary assay EC50 GIP-R (n1)) | pEC50 ([1]; cAMP assay, second determination (n2), read-out: Primary assay EC50 GIP-R (n2)) | EC50 (GLP-1R (INS1e assay); mono-lipidated peptides) [pM] | pEC50 (GLP-1R (INS1e assay); mono-lipidated peptides, replicate n1, read-out: INS1e assay EC50 GLP-1R n1) | pEC50 (GLP-1R (INS1e assay); mono-lipidated peptides, replicate n2, read-out: INS1e assay EC50 GLP-1R n2) | pEC50 ([2]; cAMP assay, first determination (n1), read-out: Primary assay EC50 GLP-1R n1) | pEC50 ([2]; cAMP assay, second determination (n2), read-out: Primary assay EC50 GLP-1R n2) | EC50 ([2]; read-out: Mean pM GLP-1R) [pM] | pEC50 ([3]; cAMP assay, first determination (n1), read-out: Primary assay EC50 Gluc-R (n1)) | pEC50 ([3]; cAMP assay, second determination (n2), read-out: Primary assay EC50 Gluc-R (n2)) | pEC50 ([1]; tris-lipidated peptides, second replicate, read-out: Primary assay EC50 GIP-R (n2)) | EC50 (GLP-1R (INS1e assay); tris-lipidated peptides) [pM] | pEC50 (GLP-1R (INS1e assay); [4]) | pEC50 (GLP-1R (INS1e assay); [5]) | EC50 [2, 6] [pM] | pEC50 [2, 7] | pEC50 [2, 8] | pEC50 [3, 9] | pEC50 ([1]; tris-lipidated peptides, first replicate, read-out: Primary assay EC50 GIP-R (n1)) | SMILES
≤ 7.55 | ≤ 7.55 | 123 | 9.77 | 10.11 | 11.15 | 11.31 | 6 | ≤ 7.55 | ≤ 7.55 |  |  |  |  |  |  |  |  |  | CCCCCCCCCCCC(=O)NCCOCCOCC(=O)NCCCC[C@H](NC(=O)[C@H](C)NC(=O)[C@H](C)NC(=O)[C@H](CCC(=O)O)NC(=O)CNC(=O)[C@H](CCC(=O)O)NC(=O)[C@H](CC(C)C)NC(=O)[C@](C)(Cc1ccccc1)NC(=O)[C@H](CO)NC(=O)[C@](C)(CO)NC(=O)[C@@H](NC(=O)[C@H](CC(=O)O)NC(=O)[C@H](CO)NC(=O)[C@@H](NC(=O)[C@](C)(Cc1ccccc1)NC(=O)[C@H](CO)NC(=O)CNC(=O)[C@H](CCC(=O)O)NC(=O)C(C)(C)NC(=O)[C@@H](N)Cc1c[nH]cn1)[C@@H](C)O)C(C)C)C(=O)N[C@@H](CCC(=O)O)C(=O)N[C@@](C)(Cc1ccccc1)C(=O)N[C@H](C(=O)N[C@@H](C)C(=O)N[C@@](C)(Cc1ccccc1)C(=O)N[C@H](C(=O)N[C@H](C(=O)N[C@@](C)(CCCCN)C(=O)NCC(=O)NCC(N)=O)C(C)C)C(C)C)[C@@H](C)CC [compound 134]
 |  |  |  |  |  |  |  |  |  | 7.70 | 3370 | 8.51 | 8.44 | 41.4 | 10.44 | 10.33 | 7.70 |  | CCCCCCCCCCCC(=O)N[C@@H](CCC(=O)NCCOCCOCC(=O)NCCOCCOCC(=O)NCCCC[C@H](NC(=O)[C@H](C)NC(=O)[C@@H](NC(=O)[C@H](Cc1ccccc1)NC(=O)[C@H](CCCCNC(=O)COCCOCCNC(=O)COCCOCCNC(=O)CC[C@H](NC(=O)CCCCCCCCCCC)C(=O)O)NC(=O)[C@](C)(CCCCN)NC(=O)[C@H](C)NC(=O)[C@H](C)NC(=O)[C@H](CCC(=O)O)NC(=O)CNC(=O)[C@H](CCC(=O)O)NC(=O)[C@H](CC(C)C)NC(=O)[C@H](Cc1ccc(O)cc1)NC(=O)[C@H](CO)NC(=O)[C@H](CO)NC(=O)[C@H](CCCCNC(=O)COCCOCCNC(=O)COCCOCCNC(=O)CC[C@H](NC(=O)CCCCCCCCCCC)C(=O)O)NC(=O)[C@H](CC(=O)O)NC(=O)[C@H](CO)NC(=O)[C@@H](NC(=O)[C@](C)(Cc1ccccc1)NC(=O)[C@H](CO)NC(=O)CNC(=O)[C@H](CCC(=O)O)NC(=O)C(C)(C)NC(=O)[C@@H](N)Cc1c[nH]cn1)[C@@H](C)O)[C@@H](C)CC)C(=O)N[C@H](C(=O)N[C@H](C(=O)N[C@@H](CCC(=O)O)C(=O)NCC(=O)NCC(N)=O)C(C)C)C(C)C)C(=O)O [compound 458] (H-H[Aib]EGS[αMeF]TSDK([AEEA-AEEA-γGlu-Lauroyl])SSYLEGEAA[αMeK]K([AEEA-AEEA-γGlu-Lauroyl])FIAK([AEEA-AEEA-γGlu-Lauroyl])VVEGG-NH2; N-terminus assumed)
 |  |  |  |  |  |  |  |  |  |  | 5860 | 8.07 | 8.50 | 36.3 | 10.55 | 10.35 | 7.70 | 7.70 | CCCCCCCCCCCC(=O)N[C@@H](CCC(=O)NCCOCCOCC(=O)NCCOCCOCC(=O)NCCCC[C@H](NC(=O)[C@H](CO)NC(=O)[C@](C)(CO)NC(=O)[C@@H](NC(=O)[C@H](CC(=O)O)NC(=O)[C@H](CO)NC(=O)[C@@H](NC(=O)[C@](C)(Cc1ccccc1)NC(=O)[C@H](CO)NC(=O)CNC(=O)[C@H](CCC(=O)O)NC(=O)C(C)(C)NC(=O)[C@@H](N)Cc1c[nH]cn1)[C@@H](C)O)C(C)C)C(=O)N[C@@H](CC(C)C)C(=O)N[C@@H](CCC(=O)O)C(=O)NCC(=O)N[C@@H](CCC(=O)O)C(=O)N[C@@H](C)C(=O)N[C@@H](C)C(=O)N[C@@](C)(CCCCN)C(=O)N[C@@H](CCCCNC(=O)COCCOCCNC(=O)COCCOCCNC(=O)CC[C@H](NC(=O)CCCCCCCCCCC)C(=O)O)C(=O)N[C@@H](Cc1ccccc1)C(=O)N[C@H](C(=O)N[C@@H](C)C(=O)N[C@@H](Cc1ccccc1)C(=O)N[C@@H](CCCCNC(=O)COCCOCCNC(=O)COCCOCCNC(=O)CC[C@H](NC(=O)CCCCCCCCCCC)C(=O)O)C(=O)N[C@H](C(=O)N[C@@H](CCC(=O)O)C(=O)NCC(=O)NCC(N)=O)C(C)C)[C@@H](C)CC)C(=O)O [compound 482] (H-H[Aib]EGS[αMeF]TSDV[αMeS]SK([AEEA-AEEA-γGlu-Lauroyl])LEGEAA[αMeK]K([AEEA-AEEA-γGlu-Lauroyl])FIAFK([AEEA-AEEA-γGlu-Lauroyl])VEGG-NH2)
